Measured values reported in US20110104301A1, “METHODS OF REDUCING PAIN AND INFLAMMATION” (Georgetown University, A Congressionally Chartered …, priority 2008, published 2011).

Tests used:
Drosophila TRPA1 = biological target: T1, Drosophila TRPA1 (Drosophila melanogaster, UniProt Q7Z020); assay: Current-voltage recordings in dTRPA1-expressing HEK293 cells; type: cell-based; details: desflurane at concentrations up to 3 mM
T1 construct: expressed in transfected cells; host or cells: HEK293
T1 sequence (Q7Z020 1-1197): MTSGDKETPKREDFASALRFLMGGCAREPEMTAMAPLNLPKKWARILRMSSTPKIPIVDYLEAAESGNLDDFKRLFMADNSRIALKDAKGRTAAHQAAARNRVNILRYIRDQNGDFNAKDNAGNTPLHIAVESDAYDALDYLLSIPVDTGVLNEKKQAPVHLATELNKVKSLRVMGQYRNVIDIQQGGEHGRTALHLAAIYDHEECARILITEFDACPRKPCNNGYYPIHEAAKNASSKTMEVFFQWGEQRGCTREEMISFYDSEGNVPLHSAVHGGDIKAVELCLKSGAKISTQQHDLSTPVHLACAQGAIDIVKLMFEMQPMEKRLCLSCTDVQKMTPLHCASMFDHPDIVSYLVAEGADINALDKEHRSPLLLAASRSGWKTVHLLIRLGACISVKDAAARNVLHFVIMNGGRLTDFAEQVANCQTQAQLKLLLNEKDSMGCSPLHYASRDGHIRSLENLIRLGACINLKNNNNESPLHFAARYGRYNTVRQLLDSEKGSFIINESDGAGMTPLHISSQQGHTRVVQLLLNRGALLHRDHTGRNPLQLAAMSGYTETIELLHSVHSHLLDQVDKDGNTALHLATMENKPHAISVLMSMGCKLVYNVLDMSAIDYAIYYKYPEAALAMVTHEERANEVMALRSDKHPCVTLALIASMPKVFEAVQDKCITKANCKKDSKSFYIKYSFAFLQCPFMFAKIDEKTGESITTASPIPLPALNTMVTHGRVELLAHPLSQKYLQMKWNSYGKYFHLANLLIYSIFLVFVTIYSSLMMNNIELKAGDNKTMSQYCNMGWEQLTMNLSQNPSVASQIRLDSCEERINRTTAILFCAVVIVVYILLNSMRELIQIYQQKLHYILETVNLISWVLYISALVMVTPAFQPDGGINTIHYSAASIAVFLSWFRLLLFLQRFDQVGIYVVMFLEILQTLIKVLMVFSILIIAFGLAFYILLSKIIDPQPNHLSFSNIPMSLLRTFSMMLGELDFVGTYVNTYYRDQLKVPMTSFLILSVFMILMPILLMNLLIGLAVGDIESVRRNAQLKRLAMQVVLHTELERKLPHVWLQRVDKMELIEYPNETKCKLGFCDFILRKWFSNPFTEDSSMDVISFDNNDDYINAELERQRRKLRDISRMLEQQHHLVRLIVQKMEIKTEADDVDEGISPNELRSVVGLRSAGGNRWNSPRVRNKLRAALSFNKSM
Procedure: (§1) A genetic approach was used to identify critical sites in TRPA1 and TRPV1 required for activation by general anesthetics. Drosophila TRPA1 is insensitive to desflurane (at concentrations up to 3 mM). […] Note that dTRPA1 is insensitive to AITC. Next, several chimeric TRP proteins containing dTRPA1 (unresponsive to desflurane) and mTRPA1 were tested. For the dTRPA1-mN chimera, the mouse 720 amino acid N-terminus was exchanged for the drosophila N-terminus. The N-terminal domain contains essential binding sites for AITC, and therefore studying this chimera tests an important role for the N-terminus in anesthetic-sensing. […] The mTRPA1-dTM5 construct was then studied, which is the mouse protein containing the fifth transmembrane domain of the drosophila protein.

[1] = system: DRG neurons from TRPA1-null mice; assay: Ca2+ imaging in DRG neurons from TRPA1-null mice; type: cell-based, mouse; details: desflurane n=125, propofol n=120
Procedure: Ca^2+ Imaging. Neurons were loaded with 1 μM Fluo4-AM (Molecular Probes) for 20 min and washed for a further 10-20 min before recording. The dye was excited at 488±15 nm. Emitted fluorescence was filtered with a 535±25 nm bandpass filter, captured by a SPOT RT digital camera (Diagnostic Instruments) and read into a computer. Analysis was performed offline by using Simple PCI software (Compix Inc.).

dTRPA1-mN chimera = biological target: T2, dTRPA1-mN chimera (UniProt Q7Z020+Q8BLA8); assay: Current-voltage recordings of chimera dTRPA1-mN; type: cell-based; details: mouse N-terminus substituted
T2 construct: mouse TRPA1 N-terminus (720 amino acids); expressed in transfected cells
Procedure: as §1

mTRPA1-dTM5 = assay: Current-voltage recordings of chimera mTRPA1-dTM5; type: cell-based
Procedure: as §1

mice = assay: AITC (mustard oil)-induced ear swelling, neurogenic inflammation during anesthesia; type: in vivo, mouse; details: 1.2 MAC
Procedure: Behavioral Experiments and Neurogenic Inflammation. Animal experiments were performed according to National Institutes of Health and institutional guidelines. […] Nocifensive behavior (nose wiping in sawdust bedding) was recorded for 2 min with a video camera and the duration was subsequently measured by a blinded observer. […] Electromyographic (EMG) activity was recorded via platinum electrodes from the semitendinosus muscle in mice anesthetized with urethane (1.3 g/kg) as described in Ando and Watanabe, Br J. Anaesth. […] The EMG signal was recorded by using a low-pass cutoff frequency of 200 Hz and integrated offline by using a 100-ms time window. […] Ear thickness was recorded by using an engineer's micrometer (Mitutoyo Corp.) before mustard-oil application and thereafter every 15 min for 60 min of anesthesia and 60 min of recovery.

T2 sequence (Q8BLA8+Q7Z020 fused, change not shown): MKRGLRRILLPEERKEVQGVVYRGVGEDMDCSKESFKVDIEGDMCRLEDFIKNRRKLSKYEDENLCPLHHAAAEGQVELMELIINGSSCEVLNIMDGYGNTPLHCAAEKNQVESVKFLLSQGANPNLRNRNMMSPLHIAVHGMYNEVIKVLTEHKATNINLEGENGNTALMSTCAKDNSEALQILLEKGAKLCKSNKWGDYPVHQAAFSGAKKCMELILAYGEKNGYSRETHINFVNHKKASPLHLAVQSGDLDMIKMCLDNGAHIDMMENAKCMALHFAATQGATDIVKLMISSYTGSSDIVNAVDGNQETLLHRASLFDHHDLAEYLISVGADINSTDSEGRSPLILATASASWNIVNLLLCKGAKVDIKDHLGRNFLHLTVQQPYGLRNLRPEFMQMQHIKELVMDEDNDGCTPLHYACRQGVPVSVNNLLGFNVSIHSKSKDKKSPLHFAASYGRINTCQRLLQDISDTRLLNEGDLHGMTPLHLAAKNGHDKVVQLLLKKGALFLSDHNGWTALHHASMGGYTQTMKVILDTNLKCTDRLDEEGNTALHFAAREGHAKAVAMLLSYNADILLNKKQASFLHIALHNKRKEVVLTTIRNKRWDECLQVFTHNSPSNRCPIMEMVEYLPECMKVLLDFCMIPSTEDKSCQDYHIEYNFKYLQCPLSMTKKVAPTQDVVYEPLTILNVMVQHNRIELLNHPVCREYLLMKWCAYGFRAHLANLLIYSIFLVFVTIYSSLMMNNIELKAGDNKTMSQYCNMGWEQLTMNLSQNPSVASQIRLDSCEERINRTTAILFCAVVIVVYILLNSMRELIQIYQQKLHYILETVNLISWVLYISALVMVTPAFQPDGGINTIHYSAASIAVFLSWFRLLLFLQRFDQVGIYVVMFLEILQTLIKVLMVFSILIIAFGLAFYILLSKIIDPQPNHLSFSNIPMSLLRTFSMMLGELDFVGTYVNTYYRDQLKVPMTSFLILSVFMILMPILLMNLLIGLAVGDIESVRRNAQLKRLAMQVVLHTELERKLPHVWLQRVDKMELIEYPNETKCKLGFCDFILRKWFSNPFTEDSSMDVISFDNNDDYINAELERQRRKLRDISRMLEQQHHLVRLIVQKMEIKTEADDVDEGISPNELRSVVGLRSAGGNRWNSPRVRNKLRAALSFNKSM

Row | Structure (SMILES) | Sensitivity of Drosophila TRPA1 (Drosophila TRPA1) | Ca2+ responses in neurons from TRPA1-null mice [1] | Response of dTRPA1-mN chimera (dTRPA1-mN chimera) | Sensitivity of mTRPA1-dTM5 chimera (mTRPA1-dTM5) | AITC-induced ear swelling during anesthesia, compared with sevoflurane (mice; AITC 0.6%, 15-120 min, n=7, P<0.01) | Swelling in the unpainted ear (mice; at 90 and 120 min)
1 | FC(F)OC(F)C(F)(F)F (stereo not drawn) [desflurane] | insensitive | no responses | no responses | abolished |  | 
2 | FC(F)OC(Cl)C(F)(F)F (stereo not drawn) [isoflurane] |  |  |  |  | significantly greater swelling | small increase in swelling
